These compounds were tested against TARP γ8 dependent AMPA receptor (GluA1o-g8 fusion channel) (Homo sapiens (Human), UniProt P42261+Q8WXS5) (assay: Calcium flux assay (FLIPR), HEK293 cells expressing GRIA1o-CACNG8 fusion). Conditions: inhibition of calcium flux after 15 μM glutamate, read-out: GluR1-γ8 pIC50 (converted).
Format: cell-based
Text: This assay was used to test compounds for their ability to inhibit TARP γ8 dependent AMPA receptor activity.
An in vitro assay was used to determine the potency of test compounds as inhibitors of the glutamate response of the channel formed by GluA1o-g8. To ensure a 1:1 stoichiometry of GluA1o and g8 subunits in the expressed channel, a fusion of the cDNAs for GRIA1o and CACNG8 was used. […] A clonal cell line in HEK293 cells stably expressing this construct, with a geneticin selection marker, was generated for use in this assay. Cell expressing the GRIAlo-CACNG8 fusion construct were grown in a monolayer in 96- or 384-well microtiter plates. […] The cells were then loaded with a calcium-sensitive dye (Calcium-5 or Calcium-6, Molecular Devices) and the test compounds at a range of concentrations.
The fluorescence in each well was normalized to the fluorescence of negative and positive control wells. […] The responses to glutamate as functions of the test compound concentrations were fitted to a four-parameter logistic function. The fitted parameter corresponding to the midpoint was taken to be the potency of inhibition of the compound.

TARP γ8 dependent AMPA receptor (GluA1o-g8 fusion channel), sequence (P42261 other isoform, or with tags, fused parts or gaps): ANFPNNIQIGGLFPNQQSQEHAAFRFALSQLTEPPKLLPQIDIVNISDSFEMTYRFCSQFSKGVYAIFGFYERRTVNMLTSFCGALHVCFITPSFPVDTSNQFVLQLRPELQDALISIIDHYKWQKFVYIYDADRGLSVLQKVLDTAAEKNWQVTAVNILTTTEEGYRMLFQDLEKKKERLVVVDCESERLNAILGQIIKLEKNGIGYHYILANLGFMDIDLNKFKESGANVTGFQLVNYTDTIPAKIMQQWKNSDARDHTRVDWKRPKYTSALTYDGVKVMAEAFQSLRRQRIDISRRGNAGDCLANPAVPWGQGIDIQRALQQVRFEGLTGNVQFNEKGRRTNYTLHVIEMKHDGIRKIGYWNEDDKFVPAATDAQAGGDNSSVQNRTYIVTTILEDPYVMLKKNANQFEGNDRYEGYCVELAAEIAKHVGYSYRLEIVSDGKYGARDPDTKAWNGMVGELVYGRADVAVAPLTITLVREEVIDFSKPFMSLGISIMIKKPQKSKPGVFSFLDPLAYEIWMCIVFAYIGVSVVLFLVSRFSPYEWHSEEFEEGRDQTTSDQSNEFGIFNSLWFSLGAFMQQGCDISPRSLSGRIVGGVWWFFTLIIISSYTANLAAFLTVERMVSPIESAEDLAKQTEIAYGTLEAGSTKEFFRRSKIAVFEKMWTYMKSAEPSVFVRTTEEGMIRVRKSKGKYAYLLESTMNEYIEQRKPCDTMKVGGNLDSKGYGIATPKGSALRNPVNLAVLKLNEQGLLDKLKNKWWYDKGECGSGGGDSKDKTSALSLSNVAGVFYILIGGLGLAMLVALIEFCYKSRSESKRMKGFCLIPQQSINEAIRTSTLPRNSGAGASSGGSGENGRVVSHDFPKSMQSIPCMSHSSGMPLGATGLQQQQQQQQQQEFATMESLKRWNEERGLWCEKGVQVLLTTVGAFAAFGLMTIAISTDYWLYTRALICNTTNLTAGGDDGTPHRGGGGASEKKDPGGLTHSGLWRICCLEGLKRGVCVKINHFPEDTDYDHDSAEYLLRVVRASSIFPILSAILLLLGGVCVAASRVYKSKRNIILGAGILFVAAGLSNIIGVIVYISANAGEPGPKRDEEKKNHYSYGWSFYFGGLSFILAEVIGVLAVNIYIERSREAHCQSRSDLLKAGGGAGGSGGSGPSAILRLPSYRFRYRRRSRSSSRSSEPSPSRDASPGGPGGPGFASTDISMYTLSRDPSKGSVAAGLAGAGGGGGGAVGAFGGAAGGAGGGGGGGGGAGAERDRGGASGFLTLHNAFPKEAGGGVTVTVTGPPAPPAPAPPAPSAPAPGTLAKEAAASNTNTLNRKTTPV

Compound	IC50 [nM]
Cc1c(C(=O)N2CCOCC2)cccc1-c1ccc2[nH]c(=O)[nH]c2c1 [Example 82, 5-[2-Methyl-3-(morpholine-4-carbonyl)phenyl]-1,3-dihydrobenzimidazol-2-one]	5010
O=C(Nc1ccccc1)c1ccc(Cl)c(-c2ccc3[nH]c(=O)[nH]c3c2)c1 [Example 83, 4-Chloro-3-(2-oxo-1,3-dihydrobenzimidazol-5-yl)-N-phenyl-benzamide]	2510
O=C(c1ccc(Cl)c(-c2ccc3[nH]c(=O)[nH]c3c2)c1)N1CCCC1 [Example 84, 5-[2-Chloro-5-(pyrrolidine-1-carbonyl)phenyl]-1,3-dihydrobenzimidazol-2-one]	7940
O=C(c1ccc(Cl)c(-c2ccc3[nH]c(=O)[nH]c3c2)c1)N1CCCCC1 [Example 85, 5-[2-Chloro-5-(piperidine-1-carbonyl)phenyl]-1,3-dihydrobenzimidazol-2-one]	5010
O=c1[nH]c2ccc(-c3c(Cl)cccc3NCc3ccco3)cc2[nH]1 [Example 86, 5-[2-Chloro-6-(2-furylmethylamino)phenyl]-1,3-dihydrobenzimidazol-2-one]	158
O=c1[nH]c2ccc(-c3c(Cl)cccc3NCc3ccoc3)cc2[nH]1 [Example 87, 5-[2-Chloro-6-(3-furylmethylamino)phenyl]-1,3-dihydrobenzimidazol-2-one]	126
CC(C)Oc1cccc(OC(F)(F)F)c1-c1ccc2[nH]c(=O)[nH]c2c1 [Example 88, 5-[2-Isopropoxy-6-(trifluoromethoxy)phenyl]-1,3-dihydrobenzimidazol-2-one]	7.94
O=c1[nH]c2ccc(-c3c(OCC4CC4)cccc3OC(F)(F)F)cc2[nH]1 [Example 89, 5-[2-(Cyclopropylmethoxy)-6-(trifluoromethoxy)phenyl]-1,3-dihydrobenzimidazol-2-one]	3.98
O=c1[nH]c2ccc(-c3c(Cl)cccc3OC3CC3)cc2[nH]1 [Example 90, 5-[2-Chloro-6-(cyclopropoxy)phenyl]-1,3-dihydrobenzimidazol-2-one]	251
CC(C)Oc1cccc(Cl)c1-c1ccc2[nH]c(=O)[nH]c2c1 [Example 91, 5-(2-Chloro-6-isopropoxy-phenyl)-1,3-dihydrobenzimidazol-2-one]	79.4
O=c1[nH]c2ccc(-c3c(Cl)cccc3OCC3CC3)cc2[nH]1 [Example 92, 5-[2-Chloro-6-(cyclopropylmethoxy)phenyl]-1,3-dihydrobenzimidazol-2-one]	10
O=c1[nH]c2ccc(-c3c(Cl)cccc3OC(F)F)cc2[nH]1 [Example 94, 5-[2-Chloro-6-(difluoromethoxy)phenyl]-1,3-dihydrobenzimidazol-2-one]	31.6
O=c1[nH]c2ccc(-c3c(Cl)cccc3OCC(F)(F)F)cc2[nH]1 [Example 95, 5-[2-Chloro-6-(2,2,2-trifluoroethoxy)phenyl]-1,3-dihydrobenzimidazol-2-one]	50.1
O=c1[nH]c2ccc(-c3c(Cl)cccc3OCC(F)F)cc2[nH]1 [Example 96, 5-[2-Chloro-6-(2,2-difluoroethoxy)phenyl]-1,3-dihydrobenzimidazol-2-one]	63.1
N#CCOc1cccc(Cl)c1-c1ccc2[nH]c(=O)[nH]c2c1 [Example 97, 2-[3-Chloro-2-(2-oxo-1,3-dihydrobenzimidazol-5-yl)phenoxy]acetonitrile]	316
CC(C)(C)COc1cccc(Cl)c1-c1ccc2[nH]c(=O)[nH]c2c1 [Example 98, 5-[2-Chloro-6-(2,2-dimethylpropoxy)phenyl]-1,3-dihydrobenzimidazol-2-one]	50.1
O=c1[nH]c2ccc(-c3c(Cl)cccc3OCc3ccccc3)cc2[nH]1 [Example 99, 5-(2-Benzyloxy-6-chloro-phenyl)-1,3-dihydrobenzimidazol-2-one]	63.1
CC(C)(C)OC(=O)N1CC(Oc2cccc(Cl)c2-c2ccc3[nH]c(=O)[nH]c3c2)C1 [Example 100, tert-Butyl 3-[3-chloro-2-(2-oxo-1,3-dihydrobenzimidazol-5-yl)phenoxy]azetidine-1-carboxylate]	316
O=c1[nH]c2ccc(-c3c(Cl)cccc3Oc3cncs3)cc2[nH]1 [Example 101, 5-(2-Chloro-6-thiazol-5-yloxy-phenyl)-1,3-dihydrobenzimidazol-2-one]	316
COc1cccc(OCC(F)F)c1-c1ccc2[nH]c(=O)[nH]c2c1 [Example 102, 5-[2-(2,2-Difluoroethoxy)-6-methoxy-phenyl]-1,3-dihydrobenzimidazol-2-one]	398
CC(C)(C)Oc1cccc(Cl)c1-c1ccc2[nH]c(=O)[nH]c2c1 [Example 116, 5-(2-tert-Butoxy-6-chloro-phenyl)-1,3-dihydrobenzimidazol-2-one]	158
COc1cccc(OC(C)(C)C)c1-c1ccc2[nH]c(=O)[nH]c2c1 [Example 117, 5-(2-tert-Butoxy-6-methoxy-phenyl)-1,3-dihydrobenzimidazol-2-one]	1000

Continued, values first:

IC50 [nM]	Compound
398	COc1cccc(OCC(F)(F)F)c1-c1ccc2[nH]c(=O)[nH]c2c1 [Example 103, 5-[2-Methoxy-6-(2,2,2-trifluoroethoxy)phenyl]-1,3-dihydrobenzimidazol-2-one]
100	COc1cccc(OCC(C)(C)C)c1-c1ccc2[nH]c(=O)[nH]c2c1 [Example 104, 5-[2-(2,2-Dimethylpropoxy)-6-methoxy-phenyl]-1,3-dihydrobenzimidazol-2-one]
39.8	COc1cccc(OCc2ccccc2)c1-c1ccc2[nH]c(=O)[nH]c2c1 [Example 105, 5-(2-Benzyloxy-6-methoxy-phenyl)-1,3-dihydrobenzimidazol-2-one]
39.8	COc1cccc(OCc2ccc(F)cc2)c1-c1ccc2[nH]c(=O)[nH]c2c1 [Example 106]
63.1	CC(C)Oc1cccc(OC(C)C)c1-c1ccc2[nH]c(=O)[nH]c2c1 [Example 107, 5-(2,6-Diisopropoxyphenyl)-1,3-dihydrobenzimidazol-2-one]
79.4	CC(C)Oc1cccc(C(F)(F)F)c1-c1ccc2[nH]c(=O)[nH]c2c1 [Example 108, 5-[2-Isopropoxy-6-(trifluoromethyl)phenyl]-1,3-dihydrobenzimidazol-2-one]
39.8	O=c1[nH]c2ccc(-c3cccc(OC4CC4)c3Cl)cc2[nH]1 [Example 109, 5-[2-Chloro-3-(cyclopropoxy)phenyl]-1,3-dihydrobenzimidazol-2-one]
31.6	CC(C)Oc1cccc(-c2ccc3[nH]c(=O)[nH]c3c2)c1Cl [Example 110, 5-(2-Chloro-3-isopropoxy-phenyl)-1,3-dihydrobenzimidazol-2-one]
126	O=c1[nH]c2ccc(-c3cccc(OCC(F)F)c3Cl)cc2[nH]1 [Example 112, 5-[2-Chloro-3-(2,2-difluoroethoxy)phenyl]-1,3-dihydrobenzimidazol-2-one]
79.4	O=c1[nH]c2ccc(-c3cccc(OC(F)F)c3Cl)cc2[nH]1 [Example 113, 5-[2-Chloro-3-(difluoromethoxy)phenyl]-1,3-dihydrobenzimidazol-2-one]
200	CC(C)(C)OC(=O)N1CC(Oc2cccc(-c3ccc4[nH]c(=O)[nH]c4c3)c2Cl)C1 [Example 114, tert-Butyl 3-[2-chloro-3-(2-oxo-1,3-dihydrobenzimidazol-5-yl)phenoxy]azetidine-1-carboxylate]
2000	CC(C)Oc1c(Cl)cccc1-c1ccc2[nH]c(=O)[nH]c2c1 [Example 115, 5-(3-Chloro-2-isopropoxy-phenyl)-1,3-dihydrobenzimidazol-2-one]
7.94	N#CCc1ccc(Cl)c(Cl)c1-c1ccc2[nH]c(=O)[nH]c2c1 [Example 122, 2-[3,4-Dichloro-2-(2-oxo-1,3-dihydrobenzimidazol-5-yl)phenyl]acetonitrile]
25.1	CC(C)(C#N)c1cccc(Cl)c1-c1ccc2[nH]c(=O)[nH]c2c1 [Example 127, 2-[3-Chloro-2-(2-oxo-1,3-dihydrobenzimidazol-5-yl)phenyl]-2-methyl-propanenitrile]
398	N#CC1(c2cccc(Cl)c2-c2ccc3[nH]c(=O)[nH]c3c2)CC1 [Example 128, 1-[3-Chloro-2-(2-oxo-1,3-dihydrobenzimidazol-5-yl)phenyl]cyclopropanecarbonitrile]
794	N#CC1(c2cccc(Cl)c2-c2ccc3[nH]c(=O)[nH]c3c2)CCC1 [Example 129, 1-[3-Chloro-2-(2-oxo-1,3-dihydrobenzimidazol-5-yl)phenyl]cyclobutanecarbonitrile]
2000	N#CCc1cccc(-c2ccc3[nH]c(=O)[nH]c3c2)c1Cl [Example 130, 2-[2-Chloro-3-(2-oxo-1,3-dihydrobenzimidazol-5-yl)phenyl]acetonitrile]
2000	N#CCc1ccc(Cl)c(-c2ccc3[nH]c(=O)[nH]c3c2)c1Cl [Example 131, 2-[2,4-Dichloro-3-(2-oxo-1,3-dihydrobenzimidazol-5-yl)phenyl]acetonitrile]
31.6	N#CCc1cccc(Br)c1-c1ccc2[nH]c(=O)[nH]c2c1 [Example 132, 2-[3-Bromo-2-(2-oxo-1,3-dihydrobenzimidazol-5-yl)phenyl]acetonitrile]
3.16	N#CCc1cccc(Cl)c1-c1ccc2[nH]c(=O)sc2c1 [Example 133, 2-[3-Chloro-2-(2-oxo-3H-1,3-benzothiazol-6-yl)phenyl]acetonitrile]
63.1	O=c1[nH]c2ccc(-c3c(Cl)cncc3Cl)cc2s1 [Example 134, 6-(3,5-Dichloro-4-pyridyl)-3H-1,3-benzothiazol-2-one]

Reference: patent US10611730B2, “Benzimidazolone and benzothiazolone compounds and their use as AMPA receptor modulators” (Janssen Pharmaceutica NV, priority 2015, dated 2020)
